Source: publication PMC8131319, “The molecular basis of spectral tuning in blue- and red-shifted flavin-binding fluorescent proteins” (The Journal of Biological Chemistry, 2021)

Columns and labels:
Assay in all cases: X-ray crystallography
Format in all cases: binding
[1] = molecular target: T1, CagFbFP (Chloroflexus aggregans, UniProt B8GAY9, I52T/C85A/Q148K); settings: 1.8 Å; space group P2_12_12; pH 5.0; noncovalent
T1 construct: gene Cagg_3753; LOV domain from residue 47 (about 47-153), C-terminal His-tag, expressed in E. coli from pET11, homodimer
T1 sequence (B8GAY9 entry or part of it I52T/C85A/Q148K): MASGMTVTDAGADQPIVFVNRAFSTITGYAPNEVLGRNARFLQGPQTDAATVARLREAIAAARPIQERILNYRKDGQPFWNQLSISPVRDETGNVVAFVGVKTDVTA

[2] = molecular target: T2, iLOV (Arabidopsis thaliana, UniProt P93025, S394T/S409G/C426A/I452T/F470L/M475V/Q489K); settings: 1.45 Å; space group P4_32_12; pH 4.6; noncovalent; acetate ion near FMN-N5
T2 construct: gene PHOT2; improved LOV2 domain (about residues 387-496 of phot2), expressed in E. coli from pET28a, His-tag (IMAC), monomer about 10 kDa
T2 sequence (P93025 387-496 S394T/S409G/C426A/I452T/F470L/M475V/Q489K limits assumed): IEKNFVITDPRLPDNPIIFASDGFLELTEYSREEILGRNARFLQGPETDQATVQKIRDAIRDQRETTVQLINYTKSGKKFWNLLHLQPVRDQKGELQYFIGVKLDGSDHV

[3] = molecular target: T3, CagFbFP (Chloroflexus aggregans, UniProt B8GAY9, C85A/Q148K); settings: 1.36 Å; pH 6.5; noncovalent; morpholine fragment near FMN; second structure 6YX6
T3 construct: gene Cagg_3753; LOV domain from residue 47 (about 47-153), C-terminal His-tag, expressed in E. coli from pET11, homodimer
T3 sequence (B8GAY9 entry or part of it C85A/Q148K): as the sequence (B8GAY9 entry or part of it I52T/C85A/Q148K) above, with T6I counted along it

[4] = molecular target: T4, CagFbFP (Chloroflexus aggregans, UniProt B8GAY9, I52T/C85A); settings: pH 5.5; noncovalent; structure virtually identical to parental CagFbFP
T4 construct: gene Cagg_3753; LOV domain from residue 47 (about 47-153), C-terminal His-tag, expressed in E. coli from pET11, homodimer
T4 sequence (B8GAY9 entry or part of it I52T/C85A): as the sequence (B8GAY9 entry or part of it I52T/C85A/Q148K) above, with K102Q counted along it

In the case of Cc1cc2nc3c(=O)[nH]c(=O)nc-3n(C[C@H](O)[C@H](O)[C@H](O)COP(=O)(O)O)c2cc1C [FMN], the X-ray crystallography [1] is reported as “structure of CagFbFP–I52T–Q148K with hydrogen bonds between K148, T52, and the FMN”, the X-ray crystallography [2] is reported as “hydrogen bond network to FMN and N468” and the X-ray crystallography [3] is reported as “side chain of the introduced lysine is facing away from FMN”. The X-ray crystallography [4] was “X-ray structure of CagFbFP-I52T”.
